{
  "source": "patent US20090306133A1",
  "about": "“New Acetyl Coenzyme A Carboxylase (ACC) Inhibitors And Uses In Treatments Of Obesity And Diabetes Mellitus - 087” (ASTRAZENECA AB, priority 2007, published 2009)",
  "key": {"[1]": {"target": "Human recombinant Acetyl-CoA Carboxylase 1 (ACC1) (Homo sapiens, UniProt Q13085)", "assay": "Assay Y: ACC1 inhibition, inorganic phosphate (Malachite Green)", "assay_type": "biochemical", "settings": "Assay Y: room temperature, 3 hr, 15 min preincubation", "method_in_brief": "(§1)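 Enzyme preincubated with compound 15 min before substrate addition; reaction run 3 h, then phosphate detected with Malachite Green at 670 nm after 10 min at room temperature. Triplicate 10-point titrations; IC50 by non-linear four-parameter curve fitting.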"}, "[2]": {"target": "Human recombinant Acetyl-CoA Carboxylase 2 (ACC2) (Homo sapiens, UniProt O00763)", "sequence (O00763 whole entry)": "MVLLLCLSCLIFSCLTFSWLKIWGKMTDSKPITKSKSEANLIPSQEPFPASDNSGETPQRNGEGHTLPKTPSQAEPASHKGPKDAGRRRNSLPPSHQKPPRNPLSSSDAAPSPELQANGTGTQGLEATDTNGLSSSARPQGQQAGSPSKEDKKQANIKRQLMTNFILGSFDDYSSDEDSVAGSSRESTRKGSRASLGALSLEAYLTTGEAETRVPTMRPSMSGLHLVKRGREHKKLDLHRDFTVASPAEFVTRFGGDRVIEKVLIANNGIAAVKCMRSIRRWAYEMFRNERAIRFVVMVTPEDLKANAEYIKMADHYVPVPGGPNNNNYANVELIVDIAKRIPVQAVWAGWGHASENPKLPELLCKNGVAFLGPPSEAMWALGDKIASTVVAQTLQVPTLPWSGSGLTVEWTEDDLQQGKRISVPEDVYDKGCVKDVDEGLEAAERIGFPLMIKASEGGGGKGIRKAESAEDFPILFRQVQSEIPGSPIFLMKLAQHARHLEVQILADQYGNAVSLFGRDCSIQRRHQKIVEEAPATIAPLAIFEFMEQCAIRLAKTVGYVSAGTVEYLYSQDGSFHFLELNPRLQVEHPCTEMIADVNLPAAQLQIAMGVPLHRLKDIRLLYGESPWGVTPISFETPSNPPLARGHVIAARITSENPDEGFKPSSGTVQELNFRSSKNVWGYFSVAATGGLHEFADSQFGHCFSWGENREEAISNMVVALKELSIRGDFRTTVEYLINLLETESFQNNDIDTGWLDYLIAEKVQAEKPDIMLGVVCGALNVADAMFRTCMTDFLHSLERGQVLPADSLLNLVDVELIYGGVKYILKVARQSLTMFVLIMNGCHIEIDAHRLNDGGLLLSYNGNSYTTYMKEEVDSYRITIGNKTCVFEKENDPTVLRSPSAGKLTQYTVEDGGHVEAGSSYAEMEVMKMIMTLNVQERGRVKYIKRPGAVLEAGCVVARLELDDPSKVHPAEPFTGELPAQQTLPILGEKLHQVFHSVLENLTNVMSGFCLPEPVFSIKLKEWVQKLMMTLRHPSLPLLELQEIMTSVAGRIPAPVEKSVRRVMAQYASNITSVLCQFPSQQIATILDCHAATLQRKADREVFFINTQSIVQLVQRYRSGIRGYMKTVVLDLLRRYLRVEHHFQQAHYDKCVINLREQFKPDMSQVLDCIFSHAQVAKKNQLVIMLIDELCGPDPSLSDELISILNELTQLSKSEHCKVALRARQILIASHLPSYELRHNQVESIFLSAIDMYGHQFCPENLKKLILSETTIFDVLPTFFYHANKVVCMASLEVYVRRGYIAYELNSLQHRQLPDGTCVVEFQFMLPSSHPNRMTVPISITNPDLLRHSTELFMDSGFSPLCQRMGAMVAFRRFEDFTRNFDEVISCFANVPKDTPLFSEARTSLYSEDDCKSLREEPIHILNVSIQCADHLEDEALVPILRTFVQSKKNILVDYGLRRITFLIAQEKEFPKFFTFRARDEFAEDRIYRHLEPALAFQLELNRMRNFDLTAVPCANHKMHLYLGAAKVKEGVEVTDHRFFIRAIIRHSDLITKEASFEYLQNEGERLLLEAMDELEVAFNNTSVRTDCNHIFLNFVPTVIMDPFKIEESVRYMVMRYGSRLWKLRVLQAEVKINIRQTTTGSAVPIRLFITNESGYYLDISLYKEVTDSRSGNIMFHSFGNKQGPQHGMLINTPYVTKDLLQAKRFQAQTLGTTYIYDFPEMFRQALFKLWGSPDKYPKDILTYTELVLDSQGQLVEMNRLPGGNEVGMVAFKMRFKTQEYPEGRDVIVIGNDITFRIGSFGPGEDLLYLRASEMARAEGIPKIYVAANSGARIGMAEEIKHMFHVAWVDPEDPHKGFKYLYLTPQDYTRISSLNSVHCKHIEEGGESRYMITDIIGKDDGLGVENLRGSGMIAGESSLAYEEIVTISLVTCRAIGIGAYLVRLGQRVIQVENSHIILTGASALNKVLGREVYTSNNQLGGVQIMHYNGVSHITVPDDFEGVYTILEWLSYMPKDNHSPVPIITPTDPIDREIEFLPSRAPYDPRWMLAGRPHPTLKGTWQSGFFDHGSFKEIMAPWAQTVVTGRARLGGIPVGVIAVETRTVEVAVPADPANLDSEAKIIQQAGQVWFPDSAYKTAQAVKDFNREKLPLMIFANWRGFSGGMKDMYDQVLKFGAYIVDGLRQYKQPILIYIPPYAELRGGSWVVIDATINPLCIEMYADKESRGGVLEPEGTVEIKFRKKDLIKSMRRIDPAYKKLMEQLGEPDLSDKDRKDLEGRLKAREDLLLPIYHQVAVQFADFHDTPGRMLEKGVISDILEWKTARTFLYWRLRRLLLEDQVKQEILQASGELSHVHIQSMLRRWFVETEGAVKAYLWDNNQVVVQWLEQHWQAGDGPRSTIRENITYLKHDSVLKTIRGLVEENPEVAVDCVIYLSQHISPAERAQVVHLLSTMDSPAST", "assay": "Assay Y: ACC2 inhibition, inorganic phosphate (Malachite Green)", "assay_type": "biochemical", "settings": "Assay Y: room temperature, 3 hr, 15 min preincubation", "method_in_brief": "as §1"}},
  "data": [
    {"smiles": "COCCOC(=O)NC[C@H]1CC[C@H](CNC(=O)c2cc(-c3ccc(N4CCN(C)CC4)nc3)nc3ccccc23)CC1", "note": "[Example 120, 2-Methoxyethyl[(trans-4-{[({2-[6-(4-methylpiperazin-1-yl)pyridin-3-yl]quinolin-4-yl}carbonyl)amino]methyl}cyclohexyl)methyl]carbamate]", "values": [
      {"measurement": "IC50", "setting": "[1]", "value": 4250, "unit": "nM"},
      {"measurement": "IC50", "setting": "[2]", "value": 1320, "unit": "nM"}
    ]},
    {"smiles": "C[C@@H](CO)OC(=O)NC[C@H]1CC[C@H](CNC(=O)c2cc(-c3ccc(N4CCN(C)CC4)nc3)nc3ccccc23)CC1", "note": "[Example 133, (1S)-2-Hydroxy-1-methylethyl [(trans-4-{[({2-[6-(4-methylpiperazin-1-yl)pyridin-3-yl]quinolin-4-yl}carbonyl)amino]methyl}cyclohexyl)methyl]carbamate]", "values": [
      {"measurement": "IC50", "setting": "[1]", "value": 2490, "unit": "nM"},
      {"measurement": "IC50", "setting": "[2]", "value": 660, "unit": "nM"}
    ]},
    {"smiles": "CNS(=O)(=O)c1ccc(-c2cc(C(=O)NC[C@H]3CC[C@H](CNC(=O)OC(C)(C)C)CC3)c3ccccc3n2)cc1", "note": "[Example 134, tert-Butyl {[trans-4-({[(2-{4-[(methylamino)sulfonyl]-phenyl}quinolin-4-yl)carbonyl]amino}methyl)cyclohexyl]methyl}-carbamate]", "values": [
      {"measurement": "IC50", "setting": "[1]", "value": 530, "unit": "nM"},
      {"measurement": "IC50", "setting": "[2]", "value": 100, "unit": "nM"}
    ]},
    {"smiles": "CC(C)(C)OC(=O)NC[C@H]1CC[C@H](CNC(=O)c2cc(-c3ccc(S(N)(=O)=O)cc3)nc3ccccc23)CC1", "note": "[Example 135, tert-Butyl [(trans-4-{[({2-[4-(aminosulfonyl)phenyl]-quinolin-4-yl}carbonyl)amino]-methyl}-cyclohexyl)methyl]-carbamate]", "values": [
      {"measurement": "IC50", "setting": "[1]", "value": 380, "unit": "nM"},
      {"measurement": "IC50", "setting": "[2]", "value": 80, "unit": "nM"}
    ]},
    {"smiles": "CNS(=O)(=O)c1ccc(-c2cc(C(=O)NC[C@H]3CC[C@H](CNC(=O)OC4CCOCC4)CC3)c3ccccc3n2)cc1", "note": "[Example 136, Tetrahydro-2H-pyran-4-yl{[trans-4-({[(2-{4-[(methylamino)sulfonyl]phenyl}quinolin-4-yl)carbonyl]amino}methyl)cyclohexyl]methyl}-carbamate]", "values": [
      {"measurement": "IC50", "setting": "[1]", "value": 3070, "unit": "nM"},
      {"measurement": "IC50", "setting": "[2]", "value": 620, "unit": "nM"}
    ]},
    {"smiles": "CNS(=O)(=O)c1ccc(-c2cc(C(=O)NC[C@H]3CC[C@H](CNC(=O)O[C@H]4CCOC4)CC3)c3ccccc3n2)cc1", "note": "[Example 137, (3S)-Tetrahydrofuran-3-yl{[trans-4-({[(2-{4-[(methylamino)sulfonyl]phenyl}quinolin-4-yl)carbonyl]amino}methyl)cyclohexyl]methyl}-carbamate]", "values": [
      {"measurement": "IC50", "setting": "[1]", "value": 3410, "unit": "nM"},
      {"measurement": "IC50", "setting": "[2]", "value": 680, "unit": "nM"}
    ]},
    {"smiles": "NS(=O)(=O)c1ccc(-c2cc(C(=O)NC[C@H]3CC[C@H](CNC(=O)OC4CCOCC4)CC3)c3ccccc3n2)cc1", "note": "[Example 138, Tetrahydro-2H-pyran-4-yl[(trans-4-{[({2-[4-(aminosulfonyl)phenyl]-quinolin-4-yl}carbonyl)amino]-methyl}cyclohexyl)-methyl]carbamate]", "values": [
      {"measurement": "IC50", "setting": "[1]", "value": 3760, "unit": "nM"},
      {"measurement": "IC50", "setting": "[2]", "value": 710, "unit": "nM"}
    ]},
    {"smiles": "NS(=O)(=O)c1ccc(-c2cc(C(=O)NC[C@H]3CC[C@H](CNC(=O)O[C@H]4CCOC4)CC3)c3ccccc3n2)cc1", "note": "[Example 139, (3S)-Tetrahydrofuran-3-yl[(trans-4-{[({2-[4-(aminosulfonyl)phenyl]-quinolin-4-yl}carbonyl)amino]-methyl}cyclohexyl)-methyl]carbamate]", "values": [
      {"measurement": "IC50", "setting": "[1]", "value": 3340, "unit": "nM"},
      {"measurement": "IC50", "setting": "[2]", "value": 530, "unit": "nM"}
    ]},
    {"smiles": "CN(C)S(=O)(=O)c1ccc(-c2cc(C(=O)NC[C@H]3CC[C@H](CNC(=O)OC4CCOCC4)CC3)c3ccccc3n2)cc1", "note": "[Example 140, Tetrahydro-2H-pyran-4-yl{[trans-4-({[(2-{4-[(dimethylamino)sulfonyl]phenyl}quinolin-4-yl)carbonyl]amino}-methyl)cyclohexyl]-methyl}carbamate]", "values": [
      {"measurement": "IC50", "setting": "[1]", "value": 3310, "unit": "nM"},
      {"measurement": "IC50", "setting": "[2]", "value": 960, "unit": "nM"}
    ]},
    {"smiles": "CN(C)S(=O)(=O)c1ccc(-c2cc(C(=O)NC[C@H]3CC[C@H](CNC(=O)O[C@H]4CCOC4)CC3)c3ccccc3n2)cc1", "note": "[Example 141, (3S)-Tetrahydrofuran-3-yl{[trans-4-({[(2-{4-[(dimethylamino)sulfonyl]phenyl}quinolin-4-yl)carbonyl]amino}-methyl)cyclohexyl]-methyl}carbamate]", "values": [
      {"measurement": "IC50", "setting": "[1]", "value": 3900, "unit": "nM"},
      {"measurement": "IC50", "setting": "[2]", "value": 920, "unit": "nM"}
    ]}
  ]
}
